From patent US20140023602A1, “EXTERNAL PREPARATION FOR SKIN CONTAINING A PHOSPHORYLATED SACCHARIDE” (EZAKI GLICO CO., LTD., priority 2005, published 2014)
Values joined by “and” are separate entries in the source; they are usually repeats but may differ in a detail not shown here. Identical values can stand only once.

What was measured:
[1] = tested on: Normal human skin fibroblast cells; assay: Collagen production by human skin fibroblast, Sircol collagen assay; format: cell-based
Method: (§1) Normal human skin fibroblast cells were adjusted with 10% D-MEM (manufactured by Invitrogen) to a density of 2.5×10^4 cells per well, and preincubated on the 96-well plate for 24 hours. After removal of the medium, phosphorylated saccharide calcium salt adjusted to a concentration of 1% with 4% D-MEM was added to each well as a test sample, and then the mixture was cultured at 37° C. under 5% CO2 for 72 hours. After the completion of the culture, the amount of collagen in the medium was measured. The amount of collagen was measured by using a Sircol collagen assay Kit (manufactured by Biocolor Ltd.).
(§2) Normal human skin fibroblast cells were adjusted with 10% D-MEM (manufactured by Invitrogen) to a density of 2.5×10^4 cells per well, and preincubated on the 96-well plate for 24 hours. After removal of the medium, phosphorylated saccharide calcium salt adjusted to a concentration of 1% with 4% D-MEM and 0.0044% ascorbic acid as a test sample, or 0.0044% ascorbic acid as a control was added to each well, and then the mixture was cultured at 37° C. under 5% CO2 for 72 hours. After the completion of the culture, the amounts of collagen in the medium and on the cell surface were measured. The amount of collagen was measured by using a Sircol collagen assay Kit (manufactured by Biocolor Ltd.). The collagen on cell surface was measured after pepsin treatment.
as §1, with “potassium” for “calcium”, “then” for “then the mixture was”
as §2, with “phosphorylated saccharide potassium salt adjusted” for “phosphorylated saccharide calcium salt adjusted”, “acid as control was” for “acid as a control was”, “medium and the cell” for “medium and on the cell”

[2] = buffer; for Water retention ratio: Remaining ratio after 1 minute (%): 1 min
Method: 0.1% to 1% Aqueous phosphorylated saccharide mineral salt solutions were prepared. Ten μl/paper of the aqueous phosphorylated saccharide mineral salt solution was impregnated into a paper disc (8 mm) [manufactured by Advantech], and the water-retention effect was evaluated by measuring the remaining water over time for 10 minutes under a constant condition. For comparison, 0.1% solution of hyaluronic acid or 1% solution of glycerol, which are known as water retention component, were used. Distilled water was used as a control.

[3] = inorganic chloride as comparison, concentration not given

Compound	induction of collagen production (in words) [1, 3]	Water retention ratio: Remaining ratio after 1 minute (%) [2] [%]	Water retention ratio: Remaining ratio after 10 minutes (%) [2] [%]	also measured
O=C1O[C@H]([C@@H](O)CO)C(O)=C1O [ascorbic acid]	–	–	–	amount of collagen in the medium ([1]; 0.0044% ascorbic acid alone, 72 hours): 55.1 µg/mL and 44.1 µg/mL and 50.1 µg/mL and 52.1 µg/mL; amount of collagen on the cell surface ([1]; 0.0044% ascorbic acid alone, 72 hours, after pepsin treatment): 23.1 µg/mL and 23.0 µg/mL and 21.3 µg/mL; increase of amount of collagen in the medium compared to control well ([1]; 0.0044% ascorbic acid in 4% FBS-DMEM, 72 hours): 1.4 µg
[Ca+2].[Cl-].[Cl-] [calcium chloride]	no induction of collagen production was observed	–	–	–
OCC(O)CO [glycerol]	–	98.84	88.23	–
[Cl-].[Cl-].[Mg+2] [magnesium chloride]	no significant collagen production induction was observed	–	–	–
[Cl-].[K+] [potassium chloride]	–	–	–	induction of the collagen production (amount of collagen) ([1]; inorganic chloride as comparison, concentration not given, 72 hours): 2.2 µg/mL
hyaluronic acid	–	98.84	83.73	–
